Experimental data as given in US6358885B1, “Substituted phenylheterocyclic herbicides” (Mississippi State University, priority 1992, dated 2002).

Key:
Assay in all cases: Test F preemergence/postemergence greenhouse plant response rating 0 to 100
Conditions in all cases: 0 to 100 scale
[1] = tested on: winter barley; type: in vivo, Hordeum vulgare cv. ‘Igri’
From the text: (§1) Compounds evaluated in this test were formulated in a non-phytoxic solvent and applied to the soil surface before plant seedlings emerged (preemergence application) and to plants that were in the one-to-four leaf stage (postemergence application). A sandy loam soil was used for the preemergence test while a mixture of sandy loam soil and greenhouse potting mix in a 60:40 ratio was used for the postemergence test. Test compounds were applied within approximately one day after planting seeds for the preemergence test. Plantings of these crops and weed species were adjusted to produce plants of appropriate size for the postemergence test. All plant species were grown using normal greenhouse practices. Crop and weed species include winter barley (Hordeum vulgare cv. ‘Igri’), blackgrass (Alopecurus myosuroides), chickweed (Stellaria media), downy brome (Bromus tectorum), field violet (Viola arvensis), galium (Galium aparine), green foxtail (Setaria viridis), kochia (Kochia scoparia), lambsquarters (Chenopodium album), speedwell (Veronica persica), rape (Brassica napus), ryegrass (Lolium multiflorum), sugar beet (Beta vulgaris cv. ‘USl’), sunflower (Helianthus annuus cv. ‘Russian Giant’), spring wheat (Triticum aestivum cv. ‘ERA’), winter wheat (Triticum aestivum cv. ‘Talent’), wild buckwheat (Polygonum convolvulus), wild mustard (Sinapis arvensis), wild oat (Avena fatua), and wild radish (Raphanus raphanistrum). Blackgrass, galium and wild oat were treated at two growth stages. […] Treated plants and untreated controls were maintained in a greenhouse for approximately 21 to 28 days, after which all treated plants were compared to untreated controls and visually evaluated. […] A dash response (-) means no test result.

[2] = tested on: blackgrass; type: in vivo, Alopecurus myosuroides
From the text: as §1

[3] = tested on: lambsquarters; type: in vivo, Chenopodium album
From the text: as §1

[4] = tested on: speedwell; type: in vivo, Veronica persica
From the text: as §1

[5] = tested on: spring wheat; type: in vivo, Triticum aestivum cv. ‘ERA’
From the text: as §1

[6] = tested on: wild radish; type: in vivo, Raphanus raphanistrum
From the text: as §1

[7] = POSTEMERGENCE, Rate 4 g/ha, stage (1) two to three leaves
[8] = POSTEMERGENCE, Rate 4 g/ha, stage (2) approximately four leaves or initial tillering
[9] = POSTEMERGENCE, Rate 8 g/ha, stage (1) two to three leaves
[10] = POSTEMERGENCE, Rate 8 g/ha, stage (2) approximately four leaves or initial tillering
[11] = POSTEMERGENCE, Rate 16 g/ha, stage (1) two to three leaves
[12] = POSTEMERGENCE, Rate 16 g/ha, stage (2) approximately four leaves or initial tillering
[13] = POSTEMERGENCE, Rate 32 g/ha, stage (1) two to three leaves
[14] = POSTEMERGENCE, Rate 32 g/ha, stage (2) approximately four leaves or initial tillering

C#CCOc1cc(-c2nn3c(c2Br)CCCC3)c(F)cc1Cl [Compound 26]
70: Lambsquarters plant response rating ([3]; PREEMERGENCE, Rate 8 g/ha) | Wild radish plant response rating ([6]; PREEMERGENCE, Rate 125 g/ha)
15: Winter Barley plant response rating ([1]; PREEMERGENCE, Rate 125 g/ha) | Blackgrass (2) plant response rating ([2]; POSTEMERGENCE, Rate 250 g/ha, stage (2) approximately four leaves or initial tillering) | Wheat (Spring) plant response rating ([5]; POSTEMERGENCE, Rate 32 g/ha) | Wheat (Spring) plant response rating ([5]; POSTEMERGENCE, Rate 64 g/ha) | Wheat (Spring) plant response rating ([5]; POSTEMERGENCE, Rate 125 g/ha) | Wheat (Spring) plant response rating ([5]; PREEMERGENCE, Rate 125 g/ha)
40: Blackgrass (2) plant response rating ([2]; PREEMERGENCE, Rate 125 g/ha, Blackgrass (2)) | Blackgrass (1) plant response rating ([2]; PREEMERGENCE, Rate 250 g/ha, Blackgrass (1)) | Blackgrass (2) plant response rating ([2]; PREEMERGENCE, Rate 250 g/ha, Blackgrass (2)) | Wild radish plant response rating ([6]; PREEMERGENCE, Rate 64 g/ha)
20: Winter Barley plant response rating ([1]; POSTEMERGENCE, Rate 32 g/ha) | Winter Barley plant response rating ([1]; PREEMERGENCE, Rate 250 g/ha) | Blackgrass (1) plant response rating ([2]; PREEMERGENCE, Rate 125 g/ha, Blackgrass (1)) | Wheat (Spring) plant response rating ([5]; POSTEMERGENCE, Rate 250 g/ha) | Wheat (Spring) plant response rating ([5]; PREEMERGENCE, Rate 250 g/ha) | Wild radish plant response rating ([6]; POSTEMERGENCE, Rate 8 g/ha)
80: Lambsquarters plant response rating ([3]; PREEMERGENCE, Rate 16 g/ha) | Persn Speedwell plant response rating ([4]; PREEMERGENCE, Rate 8 g/ha)
30: Winter Barley plant response rating ([1]; POSTEMERGENCE, Rate 64 g/ha) | Winter Barley plant response rating ([1]; POSTEMERGENCE, Rate 125 g/ha) | Winter Barley plant response rating ([1]; POSTEMERGENCE, Rate 250 g/ha) | Blackgrass (1) plant response rating ([2]; POSTEMERGENCE, Rate 250 g/ha, stage (1) two to three leaves)
50: Lambsquarters plant response rating ([3]; POSTEMERGENCE, Rate 8 g/ha) | Lambsquarters plant response rating ([3]; POSTEMERGENCE, Rate 16 g/ha) | Persn Speedwell plant response rating ([4]; PREEMERGENCE, Rate 4 g/ha)
10: Blackgrass (2) plant response rating ([2]; POSTEMERGENCE, Rate 64 g/ha, stage (2) approximately four leaves or initial tillering) | Blackgrass (1) plant response rating ([2]; POSTEMERGENCE, Rate 125 g/ha, stage (1) two to three leaves) | Blackgrass (2) plant response rating ([2]; POSTEMERGENCE, Rate 125 g/ha, stage (2) approximately four leaves or initial tillering)
0: Winter Barley plant response rating ([1]; POSTEMERGENCE, Rate 4 g/ha) | Winter Barley plant response rating ([1]; POSTEMERGENCE, Rate 8 g/ha) | Winter Barley plant response rating ([1]; POSTEMERGENCE, Rate 16 g/ha) | Winter Barley plant response rating ([1]; PREEMERGENCE, Rate 4 g/ha) | Winter Barley plant response rating ([1]; PREEMERGENCE, Rate 8 g/ha) | Winter Barley plant response rating ([1]; PREEMERGENCE, Rate 16 g/ha) | Winter Barley plant response rating ([1]; PREEMERGENCE, Rate 32 g/ha) | Winter Barley plant response rating ([1]; PREEMERGENCE, Rate 64 g/ha) | Blackgrass (1) plant response rating [2, 7] | Blackgrass (2) plant response rating [2, 8] | Blackgrass (1) plant response rating [2, 9] | Blackgrass (2) plant response rating [2, 10] | Blackgrass (1) plant response rating [2, 11] | Blackgrass (2) plant response rating [2, 12] | Blackgrass (1) plant response rating [2, 13] | Blackgrass (2) plant response rating [2, 14] | Blackgrass (1) plant response rating ([2]; POSTEMERGENCE, Rate 64 g/ha, stage (1) two to three leaves) | Blackgrass (1) plant response rating ([2]; PREEMERGENCE, Rate 4 g/ha, Blackgrass (1)) | Blackgrass (2) plant response rating ([2]; PREEMERGENCE, Rate 4 g/ha, Blackgrass (2)) | Blackgrass (1) plant response rating ([2]; PREEMERGENCE, Rate 8 g/ha, Blackgrass (1)) | Blackgrass (2) plant response rating ([2]; PREEMERGENCE, Rate 8 g/ha, Blackgrass (2)) | Blackgrass (1) plant response rating ([2]; PREEMERGENCE, Rate 16 g/ha, Blackgrass (1)) | Blackgrass (2) plant response rating ([2]; PREEMERGENCE, Rate 16 g/ha, Blackgrass (2)) | Blackgrass (1) plant response rating ([2]; PREEMERGENCE, Rate 32 g/ha, Blackgrass (1)) | Blackgrass (2) plant response rating ([2]; PREEMERGENCE, Rate 32 g/ha, Blackgrass (2)) | Blackgrass (1) plant response rating ([2]; PREEMERGENCE, Rate 64 g/ha, Blackgrass (1)) | Blackgrass (2) plant response rating ([2]; PREEMERGENCE, Rate 64 g/ha, Blackgrass (2)) | Lambsquarters plant response rating ([3]; PREEMERGENCE, Rate 4 g/ha) | Wheat (Spring) plant response rating ([5]; POSTEMERGENCE, Rate 4 g/ha) | Wheat (Spring) plant response rating ([5]; POSTEMERGENCE, Rate 8 g/ha) | Wheat (Spring) plant response rating ([5]; POSTEMERGENCE, Rate 16 g/ha) | Wheat (Spring) plant response rating ([5]; PREEMERGENCE, Rate 4 g/ha) | Wheat (Spring) plant response rating ([5]; PREEMERGENCE, Rate 8 g/ha) | Wheat (Spring) plant response rating ([5]; PREEMERGENCE, Rate 16 g/ha) | Wheat (Spring) plant response rating ([5]; PREEMERGENCE, Rate 32 g/ha) | Wheat (Spring) plant response rating ([5]; PREEMERGENCE, Rate 64 g/ha) | Wild radish plant response rating ([6]; POSTEMERGENCE, Rate 4 g/ha) | Wild radish plant response rating ([6]; PREEMERGENCE, Rate 4 g/ha) | Wild radish plant response rating ([6]; PREEMERGENCE, Rate 8 g/ha) | Wild radish plant response rating ([6]; PREEMERGENCE, Rate 16 g/ha) | Wild radish plant response rating ([6]; PREEMERGENCE, Rate 32 g/ha)
100: Lambsquarters plant response rating ([3]; POSTEMERGENCE, Rate 32 g/ha) | Lambsquarters plant response rating ([3]; POSTEMERGENCE, Rate 64 g/ha) | Lambsquarters plant response rating ([3]; POSTEMERGENCE, Rate 125 g/ha) | Lambsquarters plant response rating ([3]; POSTEMERGENCE, Rate 250 g/ha) | Lambsquarters plant response rating ([3]; PREEMERGENCE, Rate 32 g/ha) | Lambsquarters plant response rating ([3]; PREEMERGENCE, Rate 64 g/ha) | Lambsquarters plant response rating ([3]; PREEMERGENCE, Rate 125 g/ha) | Persn Speedwell plant response rating ([4]; POSTEMERGENCE, Rate 32 g/ha) | Persn Speedwell plant response rating ([4]; POSTEMERGENCE, Rate 64 g/ha) | Persn Speedwell plant response rating ([4]; POSTEMERGENCE, Rate 125 g/ha) | Persn Speedwell plant response rating ([4]; POSTEMERGENCE, Rate 250 g/ha) | Persn Speedwell plant response rating ([4]; PREEMERGENCE, Rate 16 g/ha) | Persn Speedwell plant response rating ([4]; PREEMERGENCE, Rate 32 g/ha) | Persn Speedwell plant response rating ([4]; PREEMERGENCE, Rate 64 g/ha) | Persn Speedwell plant response rating ([4]; PREEMERGENCE, Rate 125 g/ha) | Persn Speedwell plant response rating ([4]; PREEMERGENCE, Rate 250 g/ha) | Wild radish plant response rating ([6]; PREEMERGENCE, Rate 250 g/ha)
60: Persn Speedwell plant response rating ([4]; POSTEMERGENCE, Rate 4 g/ha) | Persn Speedwell plant response rating ([4]; POSTEMERGENCE, Rate 8 g/ha) | Wild radish plant response rating ([6]; POSTEMERGENCE, Rate 16 g/ha) | Wild radish plant response rating ([6]; POSTEMERGENCE, Rate 32 g/ha) | Wild radish plant response rating ([6]; POSTEMERGENCE, Rate 64 g/ha) | Wild radish plant response rating ([6]; POSTEMERGENCE, Rate 125 g/ha) | Wild radish plant response rating ([6]; POSTEMERGENCE, Rate 250 g/ha)

CCOC(=O)COc1cc(-c2nn3c(c2Cl)CCCC3)c(F)cc1Cl [Compound 42]
10: Winter Barley plant response rating ([1]; POSTEMERGENCE, Rate 2 g/ha) | Winter Barley plant response rating ([1]; POSTEMERGENCE, Rate 4 g/ha) | Winter Barley plant response rating ([1]; POSTEMERGENCE, Rate 8 g/ha) | Winter Barley plant response rating ([1]; POSTEMERGENCE, Rate 16 g/ha) | Winter Barley plant response rating ([1]; POSTEMERGENCE, Rate 32 g/ha) | Wheat (Spring) plant response rating ([5]; POSTEMERGENCE, Rate 16 g/ha) | Wheat (Spring) plant response rating ([5]; POSTEMERGENCE, Rate 32 g/ha) | Wild radish plant response rating ([6]; POSTEMERGENCE, Rate 8 g/ha)
55: Lambsquarters plant response rating ([3]; POSTEMERGENCE, Rate 2 g/ha)
0: Blackgrass (1) plant response rating ([2]; POSTEMERGENCE, Rate 2 g/ha, stage (1) two to three leaves) | Blackgrass (2) plant response rating ([2]; POSTEMERGENCE, Rate 2 g/ha, stage (2) approximately four leaves or initial tillering) | Blackgrass (1) plant response rating [2, 7] | Blackgrass (2) plant response rating [2, 8] | Blackgrass (1) plant response rating [2, 9] | Blackgrass (2) plant response rating [2, 10] | Blackgrass (1) plant response rating [2, 11] | Blackgrass (2) plant response rating [2, 12] | Blackgrass (1) plant response rating [2, 13] | Blackgrass (2) plant response rating [2, 14] | Wheat (Spring) plant response rating ([5]; POSTEMERGENCE, Rate 2 g/ha) | Wheat (Spring) plant response rating ([5]; POSTEMERGENCE, Rate 4 g/ha) | Wheat (Spring) plant response rating ([5]; POSTEMERGENCE, Rate 8 g/ha) | Wild radish plant response rating ([6]; POSTEMERGENCE, Rate 2 g/ha) | Wild radish plant response rating ([6]; POSTEMERGENCE, Rate 4 g/ha)
20: Wild radish plant response rating ([6]; POSTEMERGENCE, Rate 16 g/ha) | Wild radish plant response rating ([6]; POSTEMERGENCE, Rate 32 g/ha)
60: Lambsquarters plant response rating ([3]; POSTEMERGENCE, Rate 4 g/ha) | Lambsquarters plant response rating ([3]; POSTEMERGENCE, Rate 8 g/ha)
100: Lambsquarters plant response rating ([3]; POSTEMERGENCE, Rate 16 g/ha) | Lambsquarters plant response rating ([3]; POSTEMERGENCE, Rate 32 g/ha) | Persn Speedwell plant response rating ([4]; POSTEMERGENCE, Rate 2 g/ha) | Persn Speedwell plant response rating ([4]; POSTEMERGENCE, Rate 4 g/ha) | Persn Speedwell plant response rating ([4]; POSTEMERGENCE, Rate 8 g/ha) | Persn Speedwell plant response rating ([4]; POSTEMERGENCE, Rate 16 g/ha) | Persn Speedwell plant response rating ([4]; POSTEMERGENCE, Rate 32 g/ha)
